Tests used:
hOAT4 = target: T1, hOAT4 (Homo sapiens, UniProt Q9NSA0); assay: Two-point inhibition of hOAT4-mediated ES uptake in transfected HEK293 cells; assay type: in vitro ADME; details: ES 1 μM, 1 min; for inhibitory effect on hOAT4 (in words): 1 and 10 μM; for enhanced uptake of substrate by hOAT4: at 10 μM
T1 construct: expressed in transfected cells; host or cells: HEK293
T1 sequence (Q9NSA0 1-550): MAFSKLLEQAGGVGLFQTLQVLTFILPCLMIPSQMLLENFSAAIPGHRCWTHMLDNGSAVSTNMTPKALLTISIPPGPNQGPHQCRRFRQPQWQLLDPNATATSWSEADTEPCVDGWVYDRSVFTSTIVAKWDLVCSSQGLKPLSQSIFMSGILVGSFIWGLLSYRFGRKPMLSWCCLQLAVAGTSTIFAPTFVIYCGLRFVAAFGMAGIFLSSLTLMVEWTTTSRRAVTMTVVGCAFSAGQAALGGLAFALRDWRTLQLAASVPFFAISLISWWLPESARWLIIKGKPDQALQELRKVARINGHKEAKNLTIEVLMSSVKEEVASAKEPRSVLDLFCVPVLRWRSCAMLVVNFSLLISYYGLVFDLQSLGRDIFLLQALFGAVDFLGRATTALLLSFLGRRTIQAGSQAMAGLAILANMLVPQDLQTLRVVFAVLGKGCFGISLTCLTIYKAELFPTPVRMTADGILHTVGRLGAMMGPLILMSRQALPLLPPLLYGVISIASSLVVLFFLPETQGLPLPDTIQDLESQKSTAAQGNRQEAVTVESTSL
Protocol: (§1) Well-characterized mOct1-, mOct2-, mOat1-, mOat2-, mOat3-, mMate1-, hOAT1-, hOAT3-, hOAT4-, hMRP2-, mMdr1a- and mMdr1b-transfected HEK293 cells and the respective vector-transfected control HEK293 cells were used.[42],[51],[52] All HEK293 cells (transporter-transfected and vector-transfected) were cultured in DMEM (Sigma, high glucose, 10% FBS, 1% penicillin (10,000 Units/mL)/streptomycin (10 mg/mL)) at 37°C under 5% CO2 in humidified atmosphere. The cells were routinely checked for the absence of mycoplasma infection. For the preparation of HEK293 cell monolayers, 24-well plates were pretreated with a poly-D-lysine hydrobromide solution (0.1 mg/mL). Each well was coated with 0.5 mL of poly-D-lysine solution and incubated for at least 15 min. After complete removal of the solution, the plates were dried for 30 min. Cells (vector-transfected and transporter-transfected) treated with trypsin were immediately seeded into 24-well plates and cultured for 3 days before being used for transport experiments.
For the uptake assay, the growth medium was aspirated, and each well was rinsed three times with 0.5 mL of incubation buffer (HBSS supplemented with 20 mM HEPES, pH 7.4) and incubated for 20 min at 37 °C. Afterward, buffers were removed, and 200 μL of the incubation buffer containing a radiolabeled substrate and the nonlabeled CHD and CDCHD or reference inhibitor (Table S1), respectively, was added to each well and incubated at 37 °C for designated time intervals. After incubation, uptake was terminated by aspirating the reaction mixture and washing the cells three times with 0.4 mL of ice-cold incubation buffer. Cells were solubilized with 0.6 mL of 1N NaOH overnight and transferred into scintillation vials. ^3H and ^14C contents were measured after the addition of 2.5 mL of scintillator in a liquid scintillation counter.
The cellular protein amount was determined in parallel for each cell line (vector- and transporter-transfected) from six wells in a different 24-well reference plate using the Bradford method. For the two-point inhibition assays, each, CHD and CDCHD, was added in two single concentrations of 1 and 10 μM to characterize their inhibitory potential. Incubation was terminated after 1 min. All experiments were conducted in triplicate for every transporter.
The ES incubation buffer contained ^3H-ES and nonlabeled ES in a final concentration of 1 μM. Inhibition of hOAT4-mediated ES uptake by 10 μM BSP was performed as a control experiment.
(§2) The inhibitory effect (I(%)) was calculated according to the formula: [drawing 5] […]

hMRP2 = target: T2, hMRP2 (Homo sapiens, UniProt Q92887); assay: Two-point inhibition of hMRP2-mediated efflux of CDCF in transfected HEK293 cells; assay type: in vitro ADME; details: 1 and 10 μM; CDCF-DA 5 μM, efflux 10 min
T2 construct: expressed in transfected cells; host or cells: HEK293
Protocol: as §1, with “After complete removal of the solution, the plates were dried for 30 min. Cells (vector-transfected and transporter-transfected) treated with trypsin were immediately seeded into 24-well plates and cultured for 3 days before being used for transport experiments.” left out
After preloading, the incubation buffer was removed, cells were washed twice with cold HBSS incubation buffer, and for the efflux, 0.2 mL of incubation buffer was added to each well containing the nonlabeled CHD and CDCHD or reference inhibitor (Table S1) and incubated at 37 °C for designated time intervals. […] Samples were diluted with incubation buffer, and fluorescence was measured in a 96-well plate (Sarstedt, flat bottom) at an extinction of 490 nm and emission of 535 nm. […]
The inhibitory effect I (%) and the efflux ratio was calculated in the same way described for the uptake assays.

uropathogenic E. coli = test system: uropathogenic E. coli; parameters: method as in PMID 38047701; details: cited from earlier work
mOct1 = target: T3, mOct1 (Mus musculus, UniProt O08966); assay: Two-point inhibition of mOct1-mediated MPP uptake in transfected HEK293 cells; assay type: in vitro ADME; details: 1 and 10 μM; MPP 10 μM, 1 min
T3 construct: expressed in transfected cells; host or cells: HEK293
T3 sequence (O08966 1-556): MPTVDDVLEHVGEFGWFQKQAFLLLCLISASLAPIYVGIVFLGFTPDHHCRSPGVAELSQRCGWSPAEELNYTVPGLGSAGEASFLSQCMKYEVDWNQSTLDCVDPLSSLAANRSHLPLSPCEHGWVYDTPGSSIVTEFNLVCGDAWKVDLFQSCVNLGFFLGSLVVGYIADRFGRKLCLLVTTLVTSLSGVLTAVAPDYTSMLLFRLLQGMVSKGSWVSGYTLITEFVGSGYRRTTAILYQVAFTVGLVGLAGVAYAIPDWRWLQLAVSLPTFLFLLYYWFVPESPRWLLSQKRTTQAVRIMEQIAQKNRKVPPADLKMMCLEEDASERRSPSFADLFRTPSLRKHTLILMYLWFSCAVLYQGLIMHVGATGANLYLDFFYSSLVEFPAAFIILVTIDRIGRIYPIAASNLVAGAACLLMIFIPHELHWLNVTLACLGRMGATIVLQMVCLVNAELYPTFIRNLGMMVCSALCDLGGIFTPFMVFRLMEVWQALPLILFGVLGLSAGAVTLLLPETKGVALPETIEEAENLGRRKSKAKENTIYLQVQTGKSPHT
Protocol: as §1, with “Each well was coated with 0.5 mL of poly-D-lysine solution and incubated for at least 15 min. After complete removal of the solution, the plates were dried for 30 min. Cells (vector-transfected and transporter-transfected) treated with trypsin were immediately seeded into 24-well plates and cultured for 3 days before being used for transport experiments.” left out
For the uptake assay, the growth medium was aspirated, and each well was rinsed three times with 0.5 mL of incubation buffer (HBSS supplemented with 20 mM HEPES, pH 7.4) and incubated for 20 min at 37 °C. […] Cells were solubilized with 0.6 mL of 1N NaOH overnight and transferred into scintillation vials. ^3H and ^14C contents were measured after the addition of 2.5 mL of scintillator in a liquid scintillation counter.
The cellular protein amount was determined in parallel for each cell line (vector- and transporter-transfected) from six wells in a different 24-well reference plate using the Bradford method. […]
as §2

T2 sequence (Q92887 whole entry): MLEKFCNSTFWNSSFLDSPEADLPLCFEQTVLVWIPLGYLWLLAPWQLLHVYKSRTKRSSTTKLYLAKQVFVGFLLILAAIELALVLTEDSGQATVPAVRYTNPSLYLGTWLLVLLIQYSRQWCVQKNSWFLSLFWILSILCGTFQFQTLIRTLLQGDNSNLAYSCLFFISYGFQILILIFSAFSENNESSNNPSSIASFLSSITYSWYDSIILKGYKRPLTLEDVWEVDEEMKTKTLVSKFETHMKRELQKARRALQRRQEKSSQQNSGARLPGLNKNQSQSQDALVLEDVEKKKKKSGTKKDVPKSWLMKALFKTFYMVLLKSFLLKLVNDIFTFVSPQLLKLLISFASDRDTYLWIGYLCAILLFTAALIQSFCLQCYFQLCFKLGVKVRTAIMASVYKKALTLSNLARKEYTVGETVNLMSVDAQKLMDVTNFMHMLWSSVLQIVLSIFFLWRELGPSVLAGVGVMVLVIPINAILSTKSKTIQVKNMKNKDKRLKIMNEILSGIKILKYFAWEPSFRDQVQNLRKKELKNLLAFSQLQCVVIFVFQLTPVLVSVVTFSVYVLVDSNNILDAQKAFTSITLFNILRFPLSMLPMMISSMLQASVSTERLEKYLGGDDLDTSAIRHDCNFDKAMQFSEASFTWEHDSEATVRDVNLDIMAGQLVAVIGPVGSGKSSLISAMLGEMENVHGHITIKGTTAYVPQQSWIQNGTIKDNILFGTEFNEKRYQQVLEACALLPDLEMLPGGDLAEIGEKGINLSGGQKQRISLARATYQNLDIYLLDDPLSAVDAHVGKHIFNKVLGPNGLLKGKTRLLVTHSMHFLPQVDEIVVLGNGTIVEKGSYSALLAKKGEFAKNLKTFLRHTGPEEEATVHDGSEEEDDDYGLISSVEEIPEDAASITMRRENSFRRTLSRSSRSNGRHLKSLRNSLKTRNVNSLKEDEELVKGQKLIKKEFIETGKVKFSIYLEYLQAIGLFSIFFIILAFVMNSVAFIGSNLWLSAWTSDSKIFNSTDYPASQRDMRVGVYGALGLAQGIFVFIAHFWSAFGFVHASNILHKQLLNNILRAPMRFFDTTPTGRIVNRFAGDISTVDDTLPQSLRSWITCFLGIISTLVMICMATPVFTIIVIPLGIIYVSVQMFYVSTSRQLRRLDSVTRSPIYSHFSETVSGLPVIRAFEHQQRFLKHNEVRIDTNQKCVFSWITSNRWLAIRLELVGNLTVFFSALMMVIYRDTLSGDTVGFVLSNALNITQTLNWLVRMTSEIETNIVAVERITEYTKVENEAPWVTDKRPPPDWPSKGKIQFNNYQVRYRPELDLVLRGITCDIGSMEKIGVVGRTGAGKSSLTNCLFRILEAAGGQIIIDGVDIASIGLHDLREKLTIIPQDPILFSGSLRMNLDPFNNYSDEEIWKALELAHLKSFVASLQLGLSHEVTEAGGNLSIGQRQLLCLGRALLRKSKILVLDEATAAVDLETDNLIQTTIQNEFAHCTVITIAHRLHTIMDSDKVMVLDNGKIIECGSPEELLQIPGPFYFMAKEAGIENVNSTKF

Row | SMILES | inhibitory effect on hOAT4 (in words) (hOAT4) | enhanced uptake of substrate by hOAT4 (hOAT4) | inhibitory effect on hMRP2 (in words) (hMRP2) | effect in ascending urinary tract infection model (in words) (uropathogenic E. coli) | inhibitory effect on mOct1 (in words) (mOct1)
1 | CC(=O)C1=C(O)[C@@H](N)[C@H]2Cc3c(c(O)c4c(O)c(C)ccc4c3C)C(=O)[C@@]2(O)C1=O [CHD, chelocardin] | No inhibitory effect | up to 40% | slight inhibitory effect | pronounced effects | No inhibitory effect
2 | Cc1ccc2c(C)c3c(c(O)c2c1O)C(=O)[C@@]1(O)C(=O)C(C(N)=O)=C(O)[C@@H](N)[C@H]1C3 [CDCHD, amidochelocardin] | No inhibitory effect | up to 40% | slight inhibitory effect | pronounced effects | slight inverse inhibitory effect

Source: article PMC11249637, “Interaction of the Atypical Tetracyclines Chelocardin and Amidochelocardin with Renal Drug Transporters” (ACS Pharmacology & Translational Science, 2024)
